Experimental findings from PubChem BioAssay (NCI) are described below.

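Results reflect a 48-hour exposure of cells in 96-well plates to compound at five concentrations. The concentration for full growth arrest is given as TGI.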 Some results are limits rather than exact numbers.

Among the test systems are SN12C renal; MOLT-4 leukemia; MALME-3M melanoma; MDA-MB-231 breast; HS 578T breast; OVCAR-5 ovarian; NCI-H460 lung; K-562 leukemia; UO-31 renal; MDA-MB-435.
Assay in all cases: NCI-60 cell line screen, 48 h

Consider `COc1ccc2cc(C(=O)NCCCNC(=O)c3ccc4cc(OC)ccc4c3)ccc2c1`, for which the TGI is above 100 µM in the experiment on SN12C renal; above 100 µM in the experiment with MOLT-4 leukemia; above 100 µM in the experiment with MALME-3M melanoma; above 74.4 µM in the experiment with MDA-MB-231 breast; above 100 µM in the experiment on HS 578T breast; above 100 µM in the experiment with OVCAR-5 ovarian. Moreover, the TGI with NCI-H460 lung, in the experiment with K-562 leukemia, with UO-31 renal and in the experiment on MDA-MB-435 was above 100 µM throughout.
As for `CC1(C)CCC(=O)NC1CC(=O)CC1NC(=O)CCC1(C)C` (stereo not given), the TGI in the experiment with SN12C renal, with MOLT-4 leukemia, with MALME-3M melanoma, in the experiment on MDA-MB-231 breast, with HS 578T breast and in the experiment with OVCAR-5 ovarian was above 100 µM each time. Besides, the TGI with NCI-H460 lung, in the experiment with K-562 leukemia, in the experiment on UO-31 renal and in the experiment on MDA-MB-435 was above 100 µM each time.
As for `N#Cc1nc(CCC(c2nc(C#N)c(N)o2)N2C(=O)c3ccccc3C2=O)oc1N` (stereo not given), the TGI in the experiment on SN12C renal, with MOLT-4 leukemia, with MALME-3M melanoma, with MDA-MB-231 breast, in the experiment with HS 578T breast and in the experiment with OVCAR-5 ovarian was above 100 µM throughout. The TGI in the experiment with NCI-H460 lung, in the experiment with K-562 leukemia, in the experiment with UO-31 renal and with MDA-MB-435 was above 100 µM in each case.
`COc1ccc(-c2cc(-c3cc(F)c(Cl)cc3Cl)on2)cc1OC`: the TGI in the experiment on SN12C renal was above 100 µM; in the experiment with MOLT-4 leukemia, 49.5 µM; in the experiment with MALME-3M melanoma, above 100 µM; in the experiment on MDA-MB-231 breast, above 100 µM; with HS 578T breast, above 100 µM; in the experiment with OVCAR-5 ovarian it was above 100 µM. Besides, the TGI was above 100 µM with NCI-H460 lung, above 100 µM in the experiment on K-562 leukemia, above 100 µM in the experiment with UO-31 renal and 16.9 µM in the experiment with MDA-MB-435.
Regarding `Clc1ncc(Cl)c(Cl)n1`, the TGI in the experiment on SN12C renal was 5.91 µM; in the experiment with MOLT-4 leukemia, 4.31 µM; in the experiment with MALME-3M melanoma, 3.75 µM; in the experiment on MDA-MB-231 breast, 7.82 µM; with HS 578T breast, 14.9 µM; in the experiment with OVCAR-5 ovarian, 34.2 µM. Besides, the TGI was above 100 µM with NCI-H460 lung, 4.08 µM in the experiment on K-562 leukemia, 7.17 µM with UO-31 renal and 7.52 µM with MDA-MB-435.
With `CC(C)C1CC[C@H](C)C[C@@H]1OC(=O)C(C(=O)O[C@H]1C[C@@H](C)CCC1C(C)C)C(O)[C@@H]1OC(C)(C)O[C@H]1C1COC(C)(C)O1` (stereo not given in full), the TGI is 30 µM with SN12C renal; 42.8 µM with MOLT-4 leukemia; 36 µM in the experiment with MALME-3M melanoma; 36.2 µM in the experiment with MDA-MB-231 breast; 36.5 µM in the experiment on HS 578T breast; 31.9 µM in the experiment with OVCAR-5 ovarian. The TGI in the experiment on NCI-H460 lung stood at 32.1 µM; with K-562 leukemia, 32.2 µM; in the experiment on UO-31 renal, 31.3 µM; in the experiment with MDA-MB-435, 32 µM.
As for `Cc1nnc(-n2c(O)cc(=O)n(-c3ccccc3)c2=S)nc1/C=C/c1ccc(N(C)C)cc1`, the TGI was above 96.1 µM in the experiment on SN12C renal; above 100 µM in the experiment on MOLT-4 leukemia; 8.38 µM with MALME-3M melanoma; above 55.7 µM in the experiment on MDA-MB-231 breast; 56.3 µM with HS 578T breast; above 75.3 µM with OVCAR-5 ovarian. The TGI with NCI-H460 lung is above 54.8 µM; with K-562 leukemia, 49.9 µM; with UO-31 renal, 19.9 µM; with MDA-MB-435, 23.8 µM.
Take `N#Cc1ccc(Oc2nc3ccc(C(F)(F)F)cc3nc2-c2ccccc2)cc1`: the TGI worked out at 40.9 µM in the experiment on SN12C renal; 43.6 µM with MOLT-4 leukemia; 45.3 µM with MALME-3M melanoma; 36.8 µM with MDA-MB-231 breast; 44.5 µM with HS 578T breast; 26.2 µM in the experiment with OVCAR-5 ovarian. The TGI turned out to be 31.4 µM in the experiment on NCI-H460 lung, 55.9 µM in the experiment on K-562 leukemia, 46.1 µM with UO-31 renal and 33.8 µM with MDA-MB-435.
In the case of `CC[C@@]12C=CC(=S)N(CCSc3ccccc3)[C@@H]1c1c(n(S(=O)(=O)c3ccc(OC)cc3)c3ccccc13)CC2`, the TGI with SN12C renal, in the experiment with MOLT-4 leukemia, with MALME-3M melanoma, in the experiment with MDA-MB-231 breast, in the experiment on HS 578T breast and with OVCAR-5 ovarian was above 100 µM throughout. For the same compound, the TGI with NCI-H460 lung, in the experiment with K-562 leukemia, with UO-31 renal and in the experiment on MDA-MB-435 was above 100 µM each time.
Turning to `COc1ccc(/C=N/NC(=O)c2cnc3[nH]c(=O)n(C)c(=O)c3c2)cc1`, the TGI is above 100 µM in the experiment on SN12C renal; above 100 µM in the experiment with MOLT-4 leukemia; above 100 µM in the experiment on MALME-3M melanoma; 86.8 µM in the experiment on MDA-MB-231 breast; above 100 µM in the experiment on HS 578T breast; above 100 µM in the experiment on OVCAR-5 ovarian. The TGI in the experiment on NCI-H460 lung, in the experiment on K-562 leukemia, with UO-31 renal and in the experiment on MDA-MB-435 was above 100 µM each time.
Take `CC1(C)CC2(C)CC1CC2NC(=O)CCN1CCOCC1` (stereo not given): the TGI in the experiment with SN12C renal, in the experiment on MOLT-4 leukemia, in the experiment on MALME-3M melanoma, with MDA-MB-231 breast, in the experiment on HS 578T breast and with OVCAR-5 ovarian was above 100 µM throughout. Besides, the TGI in the experiment on NCI-H460 lung, with K-562 leukemia, in the experiment with UO-31 renal and in the experiment on MDA-MB-435 was above 100 µM throughout.
Regarding `Oc1ccc(O)c(CNc2ccccc2)c1`, the TGI was 29.2 µM in the experiment on SN12C renal; above 100 µM in the experiment on MOLT-4 leukemia; 31.9 µM in the experiment with MALME-3M melanoma; 38.4 µM in the experiment on MDA-MB-231 breast; above 100 µM in the experiment with HS 578T breast; 41.7 µM with OVCAR-5 ovarian. The TGI with NCI-H460 lung was 47 µM; in the experiment on K-562 leukemia, above 100 µM; with UO-31 renal, 27 µM; with MDA-MB-435, 29.4 µM.
